Data as given in US20260206761A1, “HETEROARYL-TRIAZOLE COMPOUNDS AS PESTICIDES” (Bayer Aktiengesellschaft, priority 2019, published 2026).

Legend:
Type in all cases: in vivo
[1] = system: Musca domestica strain WHO-N; experiment: Musca domestica test (MUSCDO surface treatment & contact assay); conditions: 24 hours after contact, read-out: efficacy (mortality); for mortality at 4 mg/m2: surface concentration 4 mg/m^2, exposure 30 minutes; for mortality at 20 mg/m2: surface concentration 20 mg/m^2, exposure 30 minutes
Protocol: Musca domestica Test (MUSCDO Surface Treatment & Contact Assay)
Solvent: Aceton+2000 ppm rapeseed oil methyl ester (RME)
In order to produce a sufficient, active ingredient containing solution it is necessary to solve the test compound in the solvent-mix (acetone at 2 mg/ml/RME 2000 ppm). This solution is pipetted onto a glazed tile and after evaporation of the acetone, adult flies of the species Musca domestica strain WHO—N are placed onto the dried surface. The exposure time is 30 minutes. Mortality in percent (%) is determined 24 hours after contact of the insects to the treated surface. 100% mortality means that all tested insects are dead, whereas 0% means that no insect died.

[2] = system: fall armyworm larvae (Spodoptera frugiperda); experiment: Spodoptera frugiperda spray test; conditions: 168 h, read-out: activity (mortality)
How it was run: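 Compound in acetone/DMF, diluted in water with 1000 ppm alkylarylpolyglycol ether emulsifier, sprayed on maize leaf sections. Dried leaves infested with fall armyworm larvae; % mortality after 7 days (100% = all killed, 0% = none).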

[3] = system: Rhipicephalus microplus larvae (strain Parkhurst, resistant against synthetic pyrethroids); experiment: Rhipicephalus (Boophilus) microplus in-vitro contact test, larval cattle tick; conditions: after 48 hours, read-out: activity (efficacy: larvae dead or moribund); for pest or weed control at 100 g/ha: application rate 1 pg/cm^2 (=100 g/ha); for pest or weed control at 500 g/ha: application rate 5 pg/cm^2 (=500 g/ha)
How it was run: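 Acetone solutions coated onto inner walls of glass tubes by rotation (900 ppm giving 5 μg/cm^2); after evaporation, 20-50 larvae added per tube and held at 27° C., 85% relative humidity. Efficacy read after 48 h from negative geotactic behaviour; 100% = all larvae dead or moribund.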

[4] = system: larvae of the banded cucumber beetle (Diabrotica balteata); experiment: Diabrotica balteata spray test; conditions: 168 h, after 7 days, read-out: activity (efficacy: seedlings grown); for pest or weed control at 100 g/ha: application rate 100 g/ha (=32 pg/well); for pest or weed control at 500 g/ha: application rate 500 g/ha (=160 pg/well)
How it was run: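 Wheat seedlings, germinated 1 day on agar (5 seeds/well), sprayed with active compound in acetone/DMF diluted in water containing 1000 ppm emulsifier, then infested with 10-20 D. balteata larvae. Efficacy (%) scored after 7 days: 100% = seedlings grown as untreated uninfested control, 0% = no seedlings grown.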

[5] = system: adult unfed cat fleas (Ctenocephalides felis); experiment: Ctenocephalides felis oral test; conditions: 48 h, read-out: activity (mortality)
How it was run: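 About 20 adult unfed fleas fed through parafilm on cattle blood containing compound (DMSO stock diluted in blood), blood held at 37 °C and fleas at room temperature. Mortality (%) scored after 2 days.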

[6] = system: adult brown dog ticks (Rhipicephalus sanguineus); experiment: Rhipicephalus sanguineus in-vitro contact test, adult brown dog ticks; conditions: after 48 hours, read-out: activity (efficacy: ticks dead or moribund); for pest or weed control at 5 µg/cm2, 500 g/ha: application rate 5 μg/cm^2 (=500 g/ha); for pest or weed control at 100 g/ha: application rate 1 pg/cm^2 (=100 g/ha)
How it was run: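 Acetone solution rolled onto tube walls, 2 h at 30 rpm; 900 ppm → 5 μg/cm^2. Solvent evaporated, 5-10 adults/tube, perforated lid, lying, RT. 48 h: heat plate 45-50° C ≤5 min; immotile/uncoordinated = dead/moribund. 100% = all dead/moribund.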

[7] = system: adult engorged female ticks (Rhipicephalus microplus); experiment: Rhipicephalus (Boophilus) microplus injection test; conditions: 168 h, egg deposition after 7 days, read-out: activity (efficacy: infertile eggs); for pest or weed control at 4 pg: application rate 4 pg/animal; for pest or weed control at 0.02 mg: application rate 20 μg/animal
How it was run: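 Five adult engorged female ticks injected into the abdomen with 1 μL compound solution in DMSO, then held in a climate chamber. Fertile egg deposition assessed after 7 days, unclear eggs kept until hatching (about 42 days); efficacy 100% = all eggs infertile, 0% = all fertile.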

[8] = system: green peach aphid (Myzus persicae); experiment: Myzus persicae oral test; conditions: 120 h, application rate 4 ppm, after 5 days
How it was run: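 Acetone stock (1 pbw compound/100 pbw solvent) diluted in water; mixed with sugar-supplemented IPL41 medium; parafilm-sealed; mixed aphid population sucks through film; mortality % read at 5 d.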

[9] = system: larvae of the southern green stink bug (Nezara viridula); experiment: Nezara viridula spray test; conditions: 96 h, after 4 days; for mortality at 100 g/ha: application rate 100 g/ha; for mortality at 500 g/ha: application rate 500 g/ha
How it was run: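 Compound in acetone/dimethylformamide, diluted in water with 1000 ppm alkylarylpolyglycol ether emulsifier, sprayed onto barley plants carrying stink bug larvae. Mortality (%) scored after 4 days, 100% meaning all insects killed.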

[10] = system: green peach aphid (Myzus persicae); experiment: Myzus persicae spray test; conditions: 120 h, after 5 days; for mortality at 100 g/ha: application rate 100 g/ha
How it was run: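 Chinese cabbage leaf disks carrying all instars of M. persicae sprayed with compound in acetone/DMF, diluted in water with 1000 ppm alkylarylpolyglycol ether emulsifier. Percent mortality scored after 5 days (100% = all aphids killed).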

[11] = system: adult cat fleas (Ctenocephalides felis); experiment: Ctenocephalides felis in-vitro contact test, adult cat flea; conditions: application rate 5 μg/cm^2 (=500 g/ha), after 48 hours, read-out: activity (efficacy: fleas dead or moribund)
Protocol: Ctenocephalides felis—In-Vitro Contact Tests Adult Cat Flea
9 mg compound is solved in 1 mL acetone and diluted with acetone to the desired concentration. 250 μL of the test solution is filled in 25 mL glass test tubes and homogeneously distributed on the inner walls by rotation and tilting on a shaking device (2 h at 30 rpm). With a compound concentration of 900 ppm, an inner surface of 44.7 cm^2 and a homogeneous distribution, a dose of […] is achieved.
After the solvent has evaporated, each test tube is filled with 5-10 adult cat fleas (Ctenocephalides felis), closed with a perforated lid and incubated in a lying position at room temperature and relative humidity. After 48 hours efficacy is determined. The fleas are patted on the ground of the tubes and are incubated on a heating plate at 45-50° C. for at most 5 minutes. Immotile or uncoordinated moving fleas, which are not able to escape the heat by climbing upwards, are marked as dead or moribund.
An efficacy of 100% means all fleas are dead or moribund; 0% means no fleas are dead or moribund.

[12] = system: Aedes aegypti strain MONHEIM; experiment: Aedes aegypti test (AEDSAE surface treatment & contact assay); conditions: 24 hours after contact, read-out: efficacy (mortality); for mortality at 4 mg/m2: surface concentration 4 mg/m^2, exposure 30 minutes; for mortality at 20 mg/m2: surface concentration 20 mg/m^2, exposure 30 minutes
How it was run: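 Compound in acetone (2 mg/ml) with 2000 ppm RME pipetted onto glazed tile and dried; adult Aedes aegypti MONHEIM exposed 30 min. Percent mortality scored 24 h after contact.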

## CCS(=O)(=O)c1cc(C(=O)N[C@@H](C)c2nc(C3CC3)nn2-c2ccc(C#N)cn2)cc(C(F)(F)F)c1 [I-19]
[1]
  mortality at 4 mg/m2: 80 to 100%
  mortality at 20 mg/m2: 80 to 100%
[2]
  mortality at 100 g/ha: 100%
[3]
  pest or weed control at 100 g/ha: 100%
  pest or weed control at 500 g/ha: 100%
[4]
  pest or weed control at 100 g/ha: 80%
[5]
  mortality at 100 ppm: 90%
[6]
  pest or weed control at 5 µg/cm2, 500 g/ha: 80%
[7]
  pest or weed control at 4 pg: 100%
  pest or weed control at 0.02 mg: 100%
[8]
  mortality at 4 ppm: 100%

## COc1nc([C@H](C)NC(=O)c2cc(OC(F)(F)F)cc(S(C)(=O)=O)c2)n(-c2ccc(Cl)cn2)n1 [I-80]
[1]
  mortality at 4 mg/m2: 80 to 100%
  mortality at 20 mg/m2: 80 to 100%
[2]
  mortality at 100 g/ha: 100%
[9]
  mortality at 100 g/ha: 100%
  mortality at 500 g/ha: 100%
[4]
  pest or weed control at 100 g/ha: 100%
[10]
  mortality at 100 g/ha: 90%
[8]
  mortality at 4 ppm: 100%

## Cc1nc([C@H](C)NC(=O)c2cc(Cl)cc(S(=O)(=O)C(F)(F)F)c2)n(-c2ccc(Cl)cn2)n1 [II-14]
[1]
  mortality at 20 mg/m2: 80 to 100%
[2]
  mortality at 100 g/ha: 100%
  mortality at 500 g/ha: 100%
[3]
  pest or weed control at 500 g/ha: 80%
[9]
  mortality at 500 g/ha: 100%
[4]
  pest or weed control at 100 g/ha: 100%
  pest or weed control at 500 g/ha: 100%
[7]
  pest or weed control at 4 pg: 80%
  pest or weed control at 0.02 mg: 100%
[11]
  pest or weed control at 5 µg/cm2: 90%

## C[C@H](NC(=O)c1cc(Cl)cc(C2(C#N)CC2)c1)c1nc(C2CC2)nn1-c1ccc(C#N)cn1 [I-36]
[1]
  mortality at 4 mg/m2: 80 to 100%
  mortality at 20 mg/m2: 80 to 100%
[2]
  mortality at 100 g/ha: 100%
[3]
  pest or weed control at 100 g/ha: 100%
  pest or weed control at 500 g/ha: 100%
[4]
  pest or weed control at 100 g/ha: 100%
[5]
  mortality at 100 ppm: 100%
[6]
  pest or weed control at 100 g/ha: 100%
  pest or weed control at 5 µg/cm2, 500 g/ha: 80%
[7]
  pest or weed control at 4 pg: 100%
[12]
  mortality at 4 mg/m2: 80 to 100%
  mortality at 20 mg/m2: 80 to 100%

## C[C@H](NC(=O)c1cc(C2CC2)cc(C2CC2)c1)c1ncnn1-c1ccc(C#N)cn1 [II-57]
[1]
  mortality at 4 mg/m2: 80 to 100%
[2]
  mortality at 100 g/ha: 100%
[3]
  pest or weed control at 100 g/ha: 100%
  pest or weed control at 500 g/ha: 100%
[4]
  pest or weed control at 100 g/ha: 100%
[5]
  mortality at 100 ppm: 100%
[6]
  pest or weed control at 100 g/ha: 80%
  pest or weed control at 5 µg/cm2, 500 g/ha: 100%
[7]
  pest or weed control at 4 pg: 100%
[12]
  mortality at 4 mg/m2: 80 to 100%
  mortality at 20 mg/m2: 80 to 100%
[8]
  mortality at 4 ppm: 100%

## C[C@H](NC(=O)c1cc(Cl)cc(C2(C#N)CC2)c1)c1ncnn1-c1ncc(Cl)cn1 [II-55]
[2]
  mortality at 100 g/ha: 100%
[3]
  pest or weed control at 100 g/ha: 100%
  pest or weed control at 500 g/ha: 100%
[9]
  mortality at 100 g/ha: 100%
[4]
  pest or weed control at 100 g/ha: 100%
[5]
  mortality at 100 ppm: 100%
[6]
  pest or weed control at 100 g/ha: 100%
  pest or weed control at 5 µg/cm2, 500 g/ha: 100%
[7]
  pest or weed control at 4 pg: 100%
[10]
  mortality at 100 g/ha: 100%
[11]
  pest or weed control at 5 µg/cm2: 100%
[8]
  mortality at 4 ppm: 100%

## C[C@H](NC(=O)c1cc(Br)cc(S(C)(=O)=O)c1)c1ncnn1-c1ccc(C#N)cn1 [II-41]
[2]
  mortality at 100 g/ha: 100%
[3]
  pest or weed control at 100 g/ha: 100%
  pest or weed control at 500 g/ha: 100%
[9]
  mortality at 100 g/ha: 100%
[4]
  pest or weed control at 100 g/ha: 100%
[5]
  mortality at 100 ppm: 100%
[6]
  pest or weed control at 100 g/ha: 100%
  pest or weed control at 5 µg/cm2, 500 g/ha: 100%
[7]
  pest or weed control at 4 pg: 100%
  pest or weed control at 0.02 mg: 100%
[10]
  mortality at 100 g/ha: 100%
[11]
  pest or weed control at 5 µg/cm2: 100%
[8]
  mortality at 4 ppm: 100%

## C[C@H](NC(=O)c1cc(C#N)cc(S(C)(=O)=O)c1)c1ncnn1-c1ccc(C#N)cn1 [II-9]
[2]
  mortality at 500 g/ha: 100%
[3]
  pest or weed control at 100 g/ha: 80%
  pest or weed control at 500 g/ha: 80%
[9]
  mortality at 100 g/ha: 100%
  mortality at 500 g/ha: 100%
[4]
  pest or weed control at 100 g/ha: 100%
  pest or weed control at 500 g/ha: 100%
[5]
  mortality at 100 ppm: 100%
[7]
  pest or weed control at 4 pg: 100%
  pest or weed control at 0.02 mg: 100%
[10]
  mortality at 100 g/ha: 90%
[10]; application rate 500 g/ha
  mortality at 500 g/ha: 90%
[11]
  pest or weed control at 5 µg/cm2: 90%
[12]
  mortality at 4 mg/m2: 80 to 100%
[8]
  mortality at 4 ppm: 100%

## C[C@H](NC(=O)c1cc(Cl)cc(S(=O)(=O)CC(F)(F)F)c1)c1nc(C2CC2)nn1-c1ccc(C#N)cn1 [I-13]
[1]
  mortality at 20 mg/m2: 80 to 100%
[5]
  mortality at 100 ppm: 90%
[7]
  pest or weed control at 4 pg: 100%
  pest or weed control at 0.02 mg: 100%
[8]
  mortality at 4 ppm: 90%
